Reference: PubChem BioAssay AID248 (DTP/NCI, 2004)
Where “and” joins values, the source holds several entries; their conditions need not be identical. Identical values can stand only once. Toxic doses and inconclusive results are not listed. No stated cut-off is given here; in the data, active means T/C of 150% or more; inactive means T/C below 125%.

Test system: L1210 leukemia ip in BDF1 mice, survival T/C
Assay: NCI In Vivo Anticancer Drug Screen. Data for tumor model L1210 Leukemia (intraperitoneal) in B6D2F1 (BDF1) mice
Details: endpoint: mean survival time, higher = longer survival
In short: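 Tumor was transplanted into mice, which were then dosed with test compound or vehicle alone. Survival was recorded for each group, and the treated figure was expressed relative to the control figure.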

[1] = dose: 100.0 mg/kg/injection, schedule: Q04DX002 (ip), vehicle: Klucel (hydroxypropylcellulose) (HPC)
[2] = dose: 200.0 mg/kg/injection, schedule: Q04DX002 (ip), vehicle: Klucel (hydroxypropylcellulose) (HPC)
[3] = dose: 400.0 mg/kg/injection, schedule: Q04DX002 (ip), vehicle: Klucel (hydroxypropylcellulose) (HPC)
[4] = dose: 100.0 mg/kg/injection, schedule: Q04DX002 (ip), vehicle: saline
[5] = dose: 200.0 mg/kg/injection, schedule: Q04DX002 (ip), vehicle: saline
[6] = dose: 100.0 mg/kg/injection, schedule: Q04DX003 (ip), vehicle: saline
[7] = dose: 200.0 mg/kg/injection, schedule: Q04DX003 (ip), vehicle: saline
[8] = dose: 400.0 mg/kg/injection, schedule: Q04DX003 (ip), vehicle: saline
[9] = dose: 100.0 mg/kg/injection, schedule: Q01DX001 (ip), vehicle: saline with Tween-80

Measured: T/C

O=C(Nc1cccc2ccccc12)Oc1ccc(C2CCCCC2)cc1
inactive: dose: 100.0 mg/kg/injection, schedule: Q01DX009 (ip), vehicle: carboxymethylcellulose (CMC) 97 % of control and 90 % of control | [1] 89 % of control | dose: 100.0 mg/kg/injection, schedule: Q04DX002 (ip), vehicle: carboxymethylcellulose (CMC) 100 % of control and 101 % of control | dose: 100.0 mg/kg/injection, schedule: Q04DX003 (ip), vehicle: carboxymethylcellulose (CMC) 101 % of control | dose: 200.0 mg/kg/injection, schedule: Q01DX009 (ip), vehicle: carboxymethylcellulose (CMC) 87 % of control and 92 % of control | [2] 96 % of control | dose: 200.0 mg/kg/injection, schedule: Q04DX002 (ip), vehicle: carboxymethylcellulose (CMC) 101 % of control and 90 % of control | dose: 200.0 mg/kg/injection, schedule: Q04DX003 (ip), vehicle: carboxymethylcellulose (CMC) 100 % of control | dose: 400.0 mg/kg/injection, schedule: Q01DX009 (ip), vehicle: carboxymethylcellulose (CMC) 97 % of control and 90 % of control | [3] 101 % of control | dose: 400.0 mg/kg/injection, schedule: Q04DX002 (ip), vehicle: carboxymethylcellulose (CMC) 95 % of control and 90 % of control | dose: 400.0 mg/kg/injection, schedule: Q04DX003 (ip), vehicle: carboxymethylcellulose (CMC) 92 % of control

CCOC(=O)Nc1ccccn1
inactive: [1] 100 % of control | [2] 103 % of control | [3] 92 % of control

CC(=O)CCSC(C)C
inactive: dose: 50.0 mg/kg/injection, schedule: Q01DX009 (ip), vehicle: saline with Tween-80 89 % of control | dose: 100.0 mg/kg/injection, schedule: Q01DX009 (ip), vehicle: saline with Tween-80 92 % of control | dose: 200.0 mg/kg/injection, schedule: Q01DX009 (ip), vehicle: saline with Tween-80 92 % of control

Cc1cc(=O)[nH]c(NCC(=O)O)n1
inactive: dose: 50.0 mg/kg/injection, schedule: Q04DX002 (ip), vehicle: saline 101 % of control | [4] 101 % of control | [5] 101 % of control

CC1CC(=O)NC1=O (stereo unspecified)
inactive: [6] 115 % of control | [7] 116 % of control | [8] 112 % of control

CC/C=C1\CCOC1=O
inactive: [4] 102 % of control | [5] 102 % of control | dose: 400.0 mg/kg/injection, schedule: Q04DX002 (ip), vehicle: saline 115 % of control

O=[N+]([O-])c1ccc(NCSc2ccc(Cl)cc2)cc1
inactive: dose: 100.0 mg/kg/injection, schedule: Q04DX003 (ip), vehicle: other 101 % of control | dose: 200.0 mg/kg/injection, schedule: Q04DX003 (ip), vehicle: other 106 % of control | dose: 400.0 mg/kg/injection, schedule: Q04DX003 (ip), vehicle: other 108 % of control

CCCCCCCCCCCCNCCCCCCCCCCCC
inactive: dose: 3.12 mg/kg/injection, schedule: Q01DX009 (ip), vehicle: saline 102 % of control | dose: 6.25 mg/kg/injection, schedule: Q01DX009 (ip), vehicle: saline 97 % of control | dose: 6.25 mg/kg/injection, schedule: Q04DX003 (ip), vehicle: acetone 100 % of control | dose: 12.5 mg/kg/injection, schedule: Q01DX001 (ip), vehicle: saline 93 % of control | dose: 12.5 mg/kg/injection, schedule: Q01DX009 (ip), vehicle: saline 102 % of control | dose: 12.5 mg/kg/injection, schedule: Q04DX003 (ip), vehicle: acetone 96 % of control | dose: 25.0 mg/kg/injection, schedule: Q01DX001 (ip), vehicle: saline 93 % of control | dose: 100.0 mg/kg/injection, schedule: Q01DX009 (ip), vehicle: other 105 % of control | dose: 200.0 mg/kg/injection, schedule: Q01DX009 (ip), vehicle: other 105 % of control | dose: 400.0 mg/kg/injection, schedule: Q01DX009 (ip), vehicle: other 93 % of control

COc1cc(/C=C(\C(=O)O)c2cccc3ccccc23)cc(OC)c1OC
inactive: dose: 100.0 mg/kg/injection, schedule: Q04DX003 (ip), vehicle: Klucel (hydroxypropylcellulose) (HPC) 97 % of control | dose: 200.0 mg/kg/injection, schedule: Q04DX003 (ip), vehicle: Klucel (hydroxypropylcellulose) (HPC) 107 % of control | dose: 400.0 mg/kg/injection, schedule: Q04DX003 (ip), vehicle: Klucel (hydroxypropylcellulose) (HPC) 102 % of control

COC(=O)C(N)C(C)C (stereo unspecified)
inactive: dose: 25.0 mg/kg/injection, schedule: Q01DX009 (ip), vehicle: water 100 % of control | dose: 25.0 mg/kg/injection, schedule: Q04DX003 (ip), vehicle: water 106 % of control | dose: 50.0 mg/kg/injection, schedule: Q01DX009 (ip), vehicle: water 102 % of control | dose: 50.0 mg/kg/injection, schedule: Q04DX003 (ip), vehicle: water 104 % of control | dose: 100.0 mg/kg/injection, schedule: Q01DX009 (ip), vehicle: water 102 % of control | dose: 100.0 mg/kg/injection, schedule: Q04DX003 (ip), vehicle: water 114 % of control | dose: 200.0 mg/kg/injection, schedule: Q01DX009 (ip), vehicle: water 103 % of control | dose: 200.0 mg/kg/injection, schedule: Q04DX003 (ip), vehicle: water 101 % of control | dose: 400.0 mg/kg/injection, schedule: Q01DX009 (ip), vehicle: water 100 % of control | dose: 400.0 mg/kg/injection, schedule: Q04DX003 (ip), vehicle: water 104 % of control

C=CCOCC(O)C[As](=O)(O)c1ccc(Cl)cc1 (stereo unspecified)
inactive: dose: 1.56 mg/kg/injection, schedule: Q04DX003 (ip), vehicle: saline with Tween-80 104 % of control | dose: 3.13 mg/kg/injection, schedule: Q04DX003 (ip), vehicle: saline with Tween-80 104 % of control | dose: 6.25 mg/kg/injection, schedule: Q04DX003 (ip), vehicle: saline with Tween-80 112 % of control

O=c1[nH]nnc2c1nc(Cc1ccc([N+](=O)[O-])cc1)n2Cc1ccccc1
inactive: [9] 102 % of control | dose: 200.0 mg/kg/injection, schedule: Q01DX001 (ip), vehicle: saline with Tween-80 86 % of control | dose: 400.0 mg/kg/injection, schedule: Q01DX001 (ip), vehicle: saline with Tween-80 100 % of control

CC1(C)N=C(N)N=C(N)N1c1cc(Cl)cc(CCNC(=O)Nc2ccc(S(=O)(=O)F)cc2)c1
inactive: dose: 25.0 mg/kg/injection, schedule: Q01DX001 (ip), vehicle: saline with Tween-80 98 % of control | dose: 50.0 mg/kg/injection, schedule: Q01DX001 (ip), vehicle: saline with Tween-80 98 % of control | [9] 106 % of control

COB(CCCCB(OC)OC)OC
inactive: dose: 100.0 mg/kg/injection, schedule: Q01DX009 (ip), vehicle: saline sonified 96 % of control | [6] 100 % of control | dose: 200.0 mg/kg/injection, schedule: Q01DX009 (ip), vehicle: saline sonified 92 % of control | [7] 107 % of control | dose: 400.0 mg/kg/injection, schedule: Q01DX009 (ip), vehicle: saline sonified 87 % of control | [8] 94 % of control

Nc1nc(N)c(-c2ccc(Cl)cc2)c(COc2cccc([N+](=O)[O-])c2)n1
inactive: dose: 75.0 mg/kg/injection, schedule: Q01DX001 (ip), vehicle: carboxymethylcellulose (CMC) 89 % of control | dose: 150.0 mg/kg/injection, schedule: Q01DX001 (ip), vehicle: carboxymethylcellulose (CMC) 92 % of control | dose: 300.0 mg/kg/injection, schedule: Q01DX001 (ip), vehicle: carboxymethylcellulose (CMC) 93 % of control
